Data: PubChem BioAssay (NCI)
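Compound exposure: 48 hours, 5 concentrations, 96-well plates. Definition used: TGI = concentration required for complete inhibition of growth.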

Legend:
Test in all cases: NCI tumour cell line growth inhibition, 48 h
[1] = test system: A549 NSCLC
[2] = test system: UACC-257 melanoma
[3] = test system: A498 renal
[4] = test system: HOP-62 NSCLC
[5] = test system: MDA-N
[6] = test system: DU-145 prostate
[7] = test system: CAKI-1 renal
[8] = test system: TK-10 renal
[9] = test system: SW-620 colon
[10] = test system: HOP-92 NSCLC
[11] = test system: SR leukemia
[12] = test system: UACC-62 melanoma
[13] = test system: CCRF-CEM leukemia
[14] = test system: NCI-H522 lung
[15] = test system: SK-MEL-5 melanoma
[16] = test system: SK-MEL-28 melanoma
[17] = test system: 786-0 renal
[18] = test system: NCI/ADR-RES ovarian
[19] = test system: SNB-75 CNS
[20] = test system: K-562 leukemia
[21] = test system: PC-3 prostate
[22] = test system: SN12C renal
[23] = test system: MDA-MB-435
[24] = test system: HS 578T breast
[25] = test system: NCI-H23 lung
[26] = test system: RPMI-8226 leukemia
[27] = test system: HCT-116 colon
[28] = test system: ACHN renal
[29] = test system: T-47D breast
[30] = test system: SNB-19 CNS
[31] = test system: IGROV1 ovarian
[32] = test system: HCT-15 colon
[33] = test system: SF-268 CNS
[34] = test system: LOX IMVI melanoma
[35] = test system: COLO 205 colon
[36] = test system: RXF 393 renal
[37] = test system: OVCAR-4 ovarian
[38] = test system: NCI-H460 lung
[39] = test system: MCF7 breast
[40] = test system: SK-MEL-2 melanoma
[41] = test system: OVCAR-3 ovarian
[42] = test system: UO-31 renal
[43] = test system: MOLT-4 leukemia
[44] = test system: BT-549 breast
[45] = test system: NCI-H226 lung
[46] = test system: MDA-MB-231 breast
[47] = test system: OVCAR-8 ovarian
[48] = test system: M14 melanoma
[49] = test system: OVCAR-5 ovarian
[50] = test system: EKVX NSCLC
[51] = test system: U251 CNS
[52] = test system: MALME-3M melanoma
[53] = test system: SK-OV-3 ovarian
[54] = test system: SF-539 CNS
[55] = test system: HT29 colon
[56] = test system: HL-60(TB) leukemia
[57] = test system: SF-295 CNS
[58] = test system: KM12 colon
[59] = test system: HCC-2998 colon

O=C(O)c1ccc2c(c1C(=O)O)C(=O)OC2(c1ccc(O)cc1)c1ccc(O)cc1
TGI [1]: > 100 µM
TGI [2]: > 100 µM
TGI [3]: > 100 µM
TGI [4]: > 100 µM
TGI [5]: > 100 µM
TGI [6]: > 100 µM
TGI [7]: > 100 µM
TGI [8]: > 100 µM
TGI [9]: > 100 µM
TGI [10]: > 100 µM
TGI [11]: > 100 µM
TGI [12]: > 100 µM
TGI [13]: > 100 µM
TGI [14]: > 100 µM
TGI [15]: > 100 µM
TGI [16]: > 100 µM
TGI [17]: > 100 µM
TGI [18]: > 100 µM
TGI [19]: > 100 µM
TGI [20]: > 100 µM
TGI [21]: > 100 µM
TGI [22]: > 100 µM
TGI [23]: > 100 µM
TGI [24]: > 100 µM
TGI [25]: > 100 µM
TGI [26]: > 100 µM
TGI [27]: > 100 µM
TGI [28]: > 100 µM
TGI [29]: > 100 µM
TGI [30]: > 100 µM
TGI [31]: > 100 µM
TGI [32]: > 100 µM
TGI [33]: > 100 µM
TGI [34]: > 100 µM
TGI [35]: > 100 µM
TGI [36]: > 100 µM
TGI [37]: > 100 µM
TGI [38]: > 100 µM
TGI [39]: > 100 µM
TGI [40]: > 100 µM
TGI [41]: > 100 µM
TGI [42]: > 100 µM
TGI [43]: > 100 µM
TGI [44]: > 100 µM
TGI [45]: > 100 µM
TGI [46]: > 100 µM
TGI [47]: > 100 µM
TGI [48]: > 100 µM
TGI [49]: > 100 µM
TGI [50]: > 100 µM
TGI [51]: > 100 µM
TGI [52]: > 100 µM
TGI [53]: > 100 µM
TGI [54]: > 100 µM
TGI [55]: > 100 µM
TGI [56]: > 100 µM
TGI [57]: > 100 µM
TGI [58]: > 100 µM

CN(C)CCNS(=O)(=O)c1ccc(N)cc1
TGI [1]: > 100 µM
TGI [2]: > 100 µM
TGI [3]: > 100 µM
TGI [4]: 32.4 µM
TGI [5]: > 100 µM
TGI [6]: > 100 µM
TGI [59]: > 100 µM
TGI [7]: > 100 µM
TGI [8]: > 100 µM
TGI [9]: > 100 µM
TGI [10]: > 100 µM
TGI [11]: > 100 µM
TGI [12]: > 100 µM
TGI [13]: > 100 µM
TGI [14]: > 100 µM
TGI [15]: > 100 µM
TGI [16]: > 100 µM
TGI [17]: > 100 µM
TGI [18]: > 100 µM
TGI [19]: > 100 µM
TGI [20]: > 100 µM
TGI [21]: 34 µM
TGI [22]: > 100 µM
TGI [23]: > 100 µM
TGI [24]: > 100 µM
TGI [25]: > 100 µM
TGI [26]: > 100 µM
TGI [27]: > 100 µM
TGI [28]: > 100 µM
TGI [29]: > 100 µM
TGI [30]: > 100 µM
TGI [31]: > 100 µM
TGI [32]: > 100 µM
TGI [33]: > 100 µM
TGI [35]: > 100 µM
TGI [36]: > 100 µM
TGI [37]: > 100 µM
TGI [38]: > 100 µM
TGI [39]: > 100 µM
TGI [40]: 31.9 µM
TGI [41]: 31 µM
TGI [42]: > 100 µM
TGI [43]: > 100 µM
TGI [44]: > 100 µM
TGI [45]: > 100 µM
TGI [46]: > 100 µM
TGI [47]: > 100 µM
TGI [48]: > 100 µM
TGI [49]: > 100 µM
TGI [50]: > 100 µM
TGI [51]: > 100 µM
TGI [52]: > 100 µM
TGI [53]: > 100 µM
TGI [54]: > 100 µM
TGI [55]: > 100 µM
TGI [56]: > 100 µM
TGI [57]: > 100 µM
TGI [58]: > 100 µM
